{"source": "ChEMBL document CHEMBL4673317", "about": "“Linearolactone and Kaempferol Disrupt the Actin Cytoskeleton in Entamoeba histolytica: Inhibition of Amoebic Liver Abscess Development” (J Nat Prod, 2020)", "key": {"Entamoeba histolytica [1]": {"tested_on": "Entamoeba histolytica", "assay": "Antimicrobial activity against Entamoeba histolytica […] trophozoites infected in Syrian hamster assessed as inhibition of amoebic liver abscess by measuring vascular congestion at 0.1 mg/kg, ip at 4 days post infection and measured on day 8 by H and E staining based microscopic method", "format": "functional, organism-based", "conditions": "HM-1:IMSS, time 4.0 day"}, "Entamoeba histolytica [2]": {"tested_on": "Entamoeba histolytica", "assay": "Antimicrobial activity against Entamoeba histolytica HM1:MMS assessed as reduction in amoeba growth", "format": "functional, organism-based", "conditions": "HM-1:IMSS"}, "Entamoeba histolytica [3]": {"tested_on": "Entamoeba histolytica", "assay": "Antimicrobial activity against Entamoeba histolytica […] trophozoites assessed as decrease in number of vacuoles at IC50 concentration after 48 hrs by uranyl acetate staining based TEM analysis", "format": "functional, organism-based", "conditions": "HM-1:IMSS"}, "Entamoeba histolytica [4]": {"tested_on": "Entamoeba histolytica", "assay": "Antimicrobial activity against Entamoeba histolytica […] trophozoites assessed as decrease in granularity at IC50 concentration after 48 hrs by uranyl acetate staining based TEM analysis", "format": "functional, organism-based", "conditions": "HM-1:IMSS"}, "Entamoeba histolytica [5]": {"tested_on": "Entamoeba histolytica", "assay": "Antimicrobial activity against Entamoeba histolytica […] trophozoites assessed as decrease in size of cells at IC50 concentration after 48 hrs by uranyl acetate staining based TEM analysis", "format": "functional, organism-based", "conditions": "HM-1:IMSS"}, "Entamoeba histolytica [6]": {"tested_on": "Entamoeba histolytica", "assay": "Antimicrobial activity against Entamoeba histolytica […] trophozoites assessed as abnormal condensation of chromatin at IC50 concentration after 48 hrs by uranyl acetate staining based TEM analysis", "format": "functional, organism-based", "conditions": "HM-1:IMSS"}, "Entamoeba histolytica [7]": {"tested_on": "Entamoeba histolytica", "assay": "Antimicrobial activity against Entamoeba histolytica […] trophozoites infected in Syrian hamster assessed as inhibition of amoebic liver abscess by measuring edema at 0.1 mg/kg, ip at 4 days post infection and measured on day 8 by H and E staining based microscopic method", "format": "functional, organism-based", "conditions": "HM-1:IMSS, time 4.0 day"}, "Entamoeba histolytica [8]": {"tested_on": "Entamoeba histolytica", "assay": "Induction of ROS generation in Entamoeba histolytica […] trophozoites at IC50 concentration incubated for 1 hr by DCFDA staining based assay", "format": "functional, organism-based", "conditions": "HM-1:IMSS"}, "Entamoeba histolytica [9]": {"tested_on": "Entamoeba histolytica", "assay": "Induction of ROS generation in Entamoeba histolytica […] trophozoites at IC50 concentration incubated for 1 hr in presence of catalase by DCFDA staining based assay relative to control", "format": "functional, HM-1:IMSS"}, "Entamoeba histolytica [10]": {"tested_on": "Entamoeba histolytica", "assay": "Antimicrobial activity against Entamoeba histolytica […] trophozoites infected in Syrian hamster assessed as total bilirubin level at 0.1 mg/kg, ip at 4 days post infection and measured on day 8 (reference value: 0.8 +/- 0.2 mg/dl)", "format": "functional, HM-1:IMSS", "conditions": "time 4 day"}, "Entamoeba histolytica [11]": {"tested_on": "Entamoeba histolytica", "assay": "Antimicrobial activity against Entamoeba histolytica […] trophozoites infected in Syrian hamster assessed as ALT level at 0.1 mg/kg, ip at 4 days post infection and measured on day 8 (reference value: 276 +/- 24 U/L)", "format": "functional, HM-1:IMSS", "conditions": "time 4 day"}, "Entamoeba histolytica [12]": {"tested_on": "Entamoeba histolytica", "assay": "Antimicrobial activity against Entamoeba histolytica […] trophozoites infected in Syrian hamster assessed as ALP level at 0.1 mg/kg, ip at 4 days post infection and measured on day 8 (reference value: 638 +/- 50 U/L)", "format": "functional, HM-1:IMSS", "conditions": "time 4 day"}, "Entamoeba histolytica [13]": {"tested_on": "Entamoeba histolytica", "assay": "Antimicrobial activity against Entamoeba histolytica […] trophozoites infected in Syrian hamster assessed as inhibition of amoebic liver abscess at 0.1 mg/kg, ip at 4 days post infection and measured on day 8 by NMR analysis", "format": "functional, organism-based", "conditions": "HM-1:IMSS, time 4.0 day"}, "Entamoeba histolytica [14]": {"tested_on": "Entamoeba histolytica", "assay": "Antimicrobial activity against Entamoeba histolytica […] trophozoites infected in Syrian hamster assessed as inhibition of amoebic liver abscess by measuring liver weight at 0.1 mg/kg, ip at 4 days post infection and measured on day 8 relative to control", "format": "functional", "conditions": "HM-1:IMSS, 96 h, time 4 day"}, "Entamoeba histolytica [15]": {"tested_on": "Entamoeba histolytica", "assay": "Induction of apoptosis in Entamoeba histolytica […] trophozoites assessed as viable cells at IC50 concentration after 48 hrs by annexin-V-FITC/propidium iodide staining based flow cytometric analysis (reference value: 98%)", "format": "functional, HM-1:IMSS"}, "Entamoeba histolytica [16]": {"tested_on": "Entamoeba histolytica", "assay": "Induction of apoptosis in Entamoeba histolytica […] trophozoites assessed as early apoptotic cells at IC50 concentration after 48 hrs by annexin-V-FITC/propidium iodide staining based flow cytometric analysis (reference value: 0.9%)", "format": "functional, HM-1:IMSS"}, "Entamoeba histolytica [17]": {"tested_on": "Entamoeba histolytica", "assay": "Induction of apoptosis in Entamoeba histolytica […] trophozoites assessed as late apoptotic cells at IC50 concentration after 48 hrs by annexin-V-FITC/propidium iodide staining based flow cytometric analysis (reference value: 0.7%)", "format": "functional, HM-1:IMSS"}, "Entamoeba histolytica [18]": {"tested_on": "Entamoeba histolytica", "assay": "Induction of apoptosis in Entamoeba histolytica […] trophozoites assessed as necrotic cells at IC50 concentration after 48 hrs by annexin-V-FITC/propidium iodide staining based flow cytometric analysis (reference value: 0.4%)", "format": "functional, HM-1:IMSS"}, "Entamoeba histolytica [19]": {"tested_on": "Entamoeba histolytica", "assay": "Induction of DNA fragmentation in Entamoeba histolytica […] trophozoites at IC50 concentration after 1 hr by TUNEL assay relative to control", "format": "functional, HM-1:IMSS"}, "Entamoeba histolytica [20]": {"tested_on": "Entamoeba histolytica", "assay": "Antimicrobial activity against Entamoeba histolytica […] trophozoites infected in Syrian hamster assessed as inhibition of amoebic liver abscess by abundant monocytes at 0.1 mg/kg, ip at 4 days post infection and measured on day 8 by H and E staining based microscopic method", "format": "functional, organism-based", "conditions": "HM-1:IMSS, time 4.0 day"}, "Entamoeba histolytica [21]": {"tested_on": "Entamoeba histolytica", "assay": "Binding affinity to Entamoeba histolytica […] trophozoites actin assessed as induction of polarization of polymerized actin at IC50 concentration incubated for 1 hrs by […] staining based confocal microscopic analysis"}, "Entamoeba histolytica [22]": {"tested_on": "Entamoeba histolytica", "assay": "Antimicrobial activity against Entamoeba histolytica […] trophozoites infected in Syrian hamster assessed as triglycerides level at 0.1 mg/kg, ip at 4 days post infection and measured on day 8 (reference value: 395 +/- 41 mg/dl)", "format": "functional, HM-1:IMSS", "conditions": "time 4 day"}, "Entamoeba histolytica [23]": {"tested_on": "Entamoeba histolytica", "assay": "Antimicrobial activity against Entamoeba histolytica […] trophozoites infected in Syrian hamster assessed as blood ureic nitrogen level at 0.1 mg/kg, ip at 4 days post infection and measured on day 8 (reference value: […])", "format": "functional, HM-1:IMSS", "conditions": "time 4 day"}, "Entamoeba histolytica [24]": {"tested_on": "Entamoeba histolytica", "assay": "Antimicrobial activity against Entamoeba histolytica […] trophozoites infected in Syrian hamster assessed as urea level at 0.1 mg/kg, ip at 4 days post infection and measured on day 8 (reference value: 14 +/- 1 mg/dl)", "format": "functional, HM-1:IMSS", "conditions": "time 4 day"}, "Entamoeba histolytica [25]": {"tested_on": "Entamoeba histolytica", "assay": "Antimicrobial activity against Entamoeba histolytica […] trophozoites infected in Syrian hamster assessed as creatinine level at 0.1 mg/kg, ip at 4 days post infection and measured on day 8 (reference value: 0.9 +/- 0.06 mg/dl)", "format": "functional, HM-1:IMSS", "conditions": "time 4 day"}, "Entamoeba histolytica [26]": {"tested_on": "Entamoeba histolytica", "assay": "Antimicrobial activity against Entamoeba histolytica […] trophozoites infected in Syrian hamster assessed as platelets at 0.1 mg/kg, ip at 4 days post infection and measured on day 8 (reference value: 439 +/- 108 […])", "format": "functional, HM-1:IMSS", "conditions": "time 4 day"}, "Entamoeba histolytica [27]": {"tested_on": "Entamoeba histolytica", "assay": "Antimicrobial activity against Entamoeba histolytica […] trophozoites infected in Syrian hamster assessed as glucose level at 0.1 mg/kg, ip at 4 days post infection and measured on day 8 (reference value: 126 +/- 18 mg/dl)", "format": "functional, HM-1:IMSS", "conditions": "time 4 day"}, "BEAS-2B": {"tested_on": "BEAS-2B", "assay": "Cytotoxicity against human BEAS-2B cells assessed as reduction in cell viability after 24 hrs by MTT assay", "format": "cell-based"}, "CHO-K1": {"tested_on": "CHO-K1", "assay": "Cytotoxicity against CHO-K1 cells assessed as reduction in cell viability after 24 hrs by MTT assay", "format": "cell-based", "conditions": "Cricetulus griseus, CHO-K1, 24 h"}}, "note": "Calls of active or inactive are those of the source. The calls are words filed in the database; no cut-off is given here.", "data": [{"smiles": "C[C@]12C[C@H](c3ccoc3)OC(=O)[C@H]1CC[C@@]13COC(=O)C1=CC=C[C@H]32", "values": [{"measurement": "inhibition", "setting": "Entamoeba histolytica [1]", "value": "Active"}, {"measurement": "IC50", "setting": "Entamoeba histolytica [2]", "value": 27.7, "unit": "µM"}, {"measurement": "Activity", "setting": "Entamoeba histolytica [3]", "value": "Active"}, {"measurement": "Activity", "setting": "Entamoeba histolytica [4]", "value": "Active"}, {"measurement": "Activity", "setting": "Entamoeba histolytica [5]", "value": "Active"}, {"measurement": "Activity", "setting": "Entamoeba histolytica [6]", "value": "Active"}, {"measurement": "inhibition", "setting": "Entamoeba histolytica [7]", "value": "Active"}, {"measurement": "Activity", "setting": "Entamoeba histolytica [8]", "value": "Active"}, {"measurement": "Activity", "setting": "Entamoeba histolytica [9]", "value": 52.68, "unit": "%"}, {"measurement": "Activity", "setting": "Entamoeba histolytica [10]", "value": 0.4, "unit": "mg/dL"}, {"measurement": "Activity", "setting": "Entamoeba histolytica [11]", "value": 81, "unit": "U/L"}, {"measurement": "Activity", "setting": "Entamoeba histolytica [12]", "value": 324, "unit": "U/L"}, {"measurement": "inhibition", "setting": "Entamoeba histolytica [13]", "value": "Active"}, {"measurement": "inhibition in vivo at 0.1 mg/kg", "setting": "Entamoeba histolytica [14]", "value": 93.3, "unit": "%"}, {"measurement": "Activity", "setting": "Entamoeba histolytica [15]", "value": 12.6, "unit": "%"}, {"measurement": "Activity", "setting": "Entamoeba histolytica [16]", "value": 19.5, "unit": "%"}, {"measurement": "Activity", "setting": "Entamoeba histolytica [17]", "value": 58.6, "unit": "%"}, {"measurement": "Activity", "setting": "Entamoeba histolytica [18]", "value": 9.4, "unit": "%"}, {"measurement": "Activity", "setting": "Entamoeba histolytica [19]", "value": 78, "unit": "%"}, {"measurement": "inhibition", "setting": "Entamoeba histolytica [20]", "value": "Active"}, {"measurement": "Activity", "setting": "Entamoeba histolytica [21]", "value": "Active"}, {"measurement": "Activity", "setting": "Entamoeba histolytica [22]", "value": 127, "unit": "mg/dL"}, {"measurement": "Activity", "setting": "Entamoeba histolytica [23]", "value": 17, "unit": "mg/dL"}, {"measurement": "Activity", "setting": "Entamoeba histolytica [24]", "value": 45, "unit": "mg/dL"}, {"measurement": "Activity", "setting": "Entamoeba histolytica [25]", "value": 0.6, "unit": "mg/dL"}, {"measurement": "Activity", "setting": "Entamoeba histolytica [26]", "value": 320, "unit": "thousand/mm3"}, {"measurement": "Activity", "setting": "Entamoeba histolytica [27]", "value": 130, "unit": "mg/dL"}, {"measurement": "IC50", "setting": "BEAS-2B", "value": 600, "unit": "µM"}, {"measurement": "IC50", "setting": "CHO-K1", "value": 880, "unit": "µM"}]}]}
